The text below walks through data of PMC5049494, “Nitrotriazole-based acetamides and propanamides with broad spectrum antitrypanosomal activity” (European Journal of Medicinal Chemistry, 2016).

For data set [1], the system named is T.b. rhodesiense, strain STIB 900 trypomastigotes. Further details: method as in PMID 26344593, PMID 25580906. Particulars: previously evaluated compounds (orange, designated a); read-out: T.b.r. IC50; cited from earlier work.
Data set [2] has as its system T. cruzi, strain Tulahuen C4 amastigotes. The note with it: cited from earlier work; for SI (T. c.): IC50 L6/IC50 parasite; for SI (T. c.) / Bnz/comp: previously evaluated compounds; for Bnz/comp: fold potency relative to Bnz; for IC50: previously evaluated compounds (orange, designated a), read-out: T. c. IC50.
Data set [3] deals with L. donovani axenic, strain MHOM-ET-67/L82 amastigotes. More on the design: method as in PMID 26344593, PMID 25580906. The note with it: cited from earlier work; for SI (L.d.): IC50 L6/IC50 parasite, previously evaluated compounds; for IC50: previously evaluated compounds (orange, designated a), read-out: L.d. IC50.
Data set [4] has as its system L6 cells (rat skeletal myoblasts). Further details: method as in PMID 26344593, PMID 25580906. Particulars: previously evaluated compounds (orange, designated a); read-out: Cyt. L6 IC50; cited from earlier work.
The subject of data set [5] is T.b. rhodesiense, strain STIB 900 trypomastigotes. The data set can be described thus: In vitro activity against T. b. rhodesiense. It is filed as cell-based. The note with it: for anti-HAT activity class (TDR criteria): T. b. rhodesiense; for IC50: Trypanosoma brucei, T.b. rhodesiense STIB 900 trypomastigotes, means of 2 to 3 measurements, SD < 5%, read-out: T.b.r. IC50; for SI (T.b.r.): IC50 in L6 cells/IC50 in T.b. rhodesiense; for fold more potent against T. b. rhodesiense than the corresponding acetamide: propanamide vs acetamide analog. The method, then: (§1) Compounds in Table 1 were screened for anti-parasitic activity against three trypanosomatids: T. cruzi, T. b. rhodesiense and Leishmania donovani and compared with previously made analogs shown in orange and designated with a. […] In addition, compounds were tested for toxicity in L6 rat skeletal myoblasts, the host cells for T. cruzi amastigotes, in order to calculate a selectivity index for each parasite [SI = IC50L6/IC50parasite] (Table 1). The TDR (Special Programme for Research and Training in Tropical Diseases, World Health Organization) criteria were adopted to interpret antiparasitic activity and selectivity.
(§2) In vitro activity against T. cruzi, T. b. rhodesiense, L. donovani and cytotoxicity assessment using L6 cells (rat skeletal myoblasts) was determined using a 96-well plate format as previously described. Data were analyzed with the graphic program Softmax Pro (Molecular Devices, Sunnyvale, CA, USA), which calculated IC50 values by linear regression from the sigmoidal dose inhibition curves.

For data set [6], the system named is T. cruzi, strain Tulahuen C4 amastigotes. The data set can be described thus: In vitro activity against T. cruzi. It is filed as cell-based. Particulars: for IC50: Trypanosoma cruzi, T. cruzi Tulahuen C4 amastigotes, means of 2 to 3 measurements, SD < 5%, read-out: T. c. IC50; for Bnz/comp: fold antichagasic potency relative to Bnz (T. cruzi IC50 ratio); for SI (T. c.): IC50 in L6 cells/IC50 in T. cruzi.
Method: (§3) The concentration of compound that inhibits parasite growth by 50% (IC50) was calculated from dose response curves for each parasite (Table 1). In addition, compounds were tested for toxicity in L6 rat skeletal myoblasts, the host cells for T. cruzi amastigotes, in order to calculate a selectivity index for each parasite [SI = IC50L6/IC50parasite]
(§4) In vitro activity against T. cruzi, T. b. rhodesiense, L. donovani and cytotoxicity assessment using L6 cells (rat skeletal myoblasts) was determined using a 96-well plate format as previously described [37]. Data were analyzed with the graphic program Softmax Pro (Molecular Devices, Sunnyvale, CA, USA), which calculated IC50 values by linear regression from the sigmoidal dose inhibition curves.

Data set [7] deals with L. donovani axenic, strain MHOM-ET-67/L82 amastigotes. The data set can be described thus: In vitro activity against L. donovani. Format: cell-based. Particulars: for antileishmanial activity class (TDR criteria): L. donovani; for IC50: Leishmania donovani, L. donovani axenic amastigotes MHOM-ET-67/L82, means of 2 to 3 measurements, SD < 5%, read-out: L.d. IC50; for SI (L.d.): IC50 in L6 cells/IC50 in L. donovani.
Method: as §3, §4

The nature of data set [8]: Cytotoxicity in the host L6 cells. Format: cell-based, rat. The note with it: rat, L6 cells (rat skeletal myoblasts); cytotoxicity in host L6 cells; read-out: Cyt. L6 IC50. The method, then: as §1, §2
For data set [9], the system named is bloodstream form T.b. brucei wild type. The data set can be described thus: T. brucei antiproliferating assay, wild type. It is filed as cell-based. Particulars: means from 4 experiments ± SD. The method, then:
The BSF of T. brucei parasites were seeded at 1 × 10^3 mL^−1 in 200 μL of growth medium containing different concentrations of nitroheterocycle. Where appropriate, induction of the TbNTR was carried out by adding tetracycline (1 μg/mL). After incubation for 3 days at 37 °C, 20 μL of Alamar blue was added to each well and the plates incubated for a further 16 h. The cell density of each culture was determined as described before and the IC50 established.

In data set [10] the test system is bloodstream form T.b. brucei recombinant parasites expressing wild type (-tet) or elevated (+tet) levels of TbNTR. The data set can be described thus: microbe, parasite or virus in culture. It is filed as cell-based. Particulars: Trypanosoma brucei.
Method: The BSF of T. brucei parasites were seeded at 1 × 10^3 mL^−1 in 200 μL of growth medium containing different concentrations of nitroheterocycle. Where appropriate, induction of the TbNTR was carried out by adding tetracycline (1 μg/mL). After incubation for 3 days at 37 °C, 20 μL of Alamar blue was added to each well and the plates incubated for a further 16 h. The cell density of each culture was determined as described before [20] and the IC50 established.
Data set [11] has as its system purified his-tagged recombinant TbNTR. The data set can be described thus: Enzymatic activity with type I TbNTR. It is filed as biochemical, T. brucei. The note with it: substrate 100 μM, NADH 100 μM. On the procedure:
Enzyme specific activity was measured as oxidized NADH (nmol) per min per mg of protein. […] As we have reported before with other classes of 3-nitrotriazole-based antitrypanosomal compounds, no correlation between anti-HAT activity and TbNTR specific activity was observed, [13], [15], [16], [17], [18].
Recombinant TbNTR was prepared and assayed as previously described, [39]. The specific activity of purified his-tagged TbNTR was assessed spectrophotometrically at 340 nm using various nitrotriazole substrates (100 μM) and NADH (100 μM) and expressed as nmol NADH oxidized min^−1 mg^−1 of enzyme.

Data set [12] has as its system transgenic T. cruzi parasites expressing firefly luciferase. Format: in vivo, Balb/c mice. On the procedure:
A fast luminescence assay was used in an acute infected murine model, in which transgenic T. cruzi parasites expressing firefly luciferase were injected in 5 week-old Balb/c mice. Mice were injected with D-luciferin before imaging. Groups of 5 mice/group were treated i.p. for 10 consecutive days with each compound, at 13 or 15 mg/kg/day. […] The mean ratio of parasite levels was calculated after 5 and 10 days of treatment.
For in vivo studies, a Brazilian strain trypomastigotes from transgenic T. cruzi parasites expressing firefly luciferase were used as described before. Briefly, parasites (10^5 trypomastigotes) were injected in 5 week-old Balb/c mice (Taconic) and three days later mice were anesthesized by inhalation of isofluorane, followed by an injection with 150 mg/kg of D-luciferin potassium-salt in PBS. Mice were imaged 5–10 min after injection of luciferin with an IVIS 100 (Xenogen, Alameda, CA) and the data acquisition and analysis were performed with the software LivingImage (Xenogen) as described before. Treatment with test compounds started 4 days post infection at 13 or 15 mg/kg/day × 10 days, given i.p. The vehicle control was 2% methylcellulose +0.5% Tween 80 and groups of 5 mice/group were used. Mice were imaged after 5 and 10 days of treatment. The ratio of parasite levels was calculated for each animal dividing the luciferase signal after treatment by the luciferase signal on the first imaging (before treatment). Mean values of all animals in each group ± SD were used for plotting.

Setting [13] is: Trypanosoma brucei, read-out: IC50 value T.b. brucei Wild type, bloodstream form.
Setting [14] is: read-out: IC50 value T.b. brucei TbNTR (+tet).
The mark [15] stands for this setting: read-out: IC50 value T.b. brucei TbNTR (-tet).

The structures appear in SMILES notation. Where two headings read alike, the source gives them in different places. Bounds are passed on as bounds.

As a reminder, the IC50 is the concentration at which inhibition is half-maximal. Turning to `O=C(Cn1cnc([N+](=O)[O-])n1)Nc1ccc(Oc2ccccc2)cc1` [Compound 8a], the IC50 in data set [1] was 2.72 µM. Further, in data set [2], the “SI (T. c.)” value is 1416, the Bnz/comp was 31 and the half-inhibitory concentration (IC50) is 0.065 µM. Besides, in [3], the “SI (L.d.)” value was 339 and the IC50 was 0.271 µM. Moreover, the IC50 in [4] was 92 µM.

As for `O=C(Cn1cnc([N+](=O)[O-])n1)Nc1cc(-c2ccc(Cl)cc2)no1` [Compound 15, N-(3-(4-chlorophenyl)isoxazol-5-yl)-2-(3-nitro-1H-1,2,4-triazol-1-yl)acetamide], the “anti-HAT activity class (TDR criteria)” value in [5] was “inactive”. Besides, the IC50 in [5] came out at 15.1 µM; in data set [6] it was 1.53 µM; in data set [7], 12.5 µM; in data set [8], 112 µM; in [9] (setting [13]), 8.65 ± 0.49 µM; in [10] (setting [14]), 1.23 ± 0.06 µM. For the same compound, in data set [10] (setting [15]), the half-inhibitory concentration (IC50) came out at 13.3 ± 1.4 µM. For the same compound, the Bnz/comp in [6] was 1.4. The “antileishmanial activity class (TDR criteria)” value (“antileishmanial activity class” for short) in data set [7] is “inactive”. The “substrate of TbNTR / rate of metabolism” value in data set [11] is given as “equivalent rates”.

On to `O=C(CCn1cnc([N+](=O)[O-])n1)Nc1ccc(Oc2ccc(Cl)cc2)cc1` [Compound 6, N-(4-(4-chlorophenoxy)phenyl)-3-(3-nitro-1H-1,2,4-triazol-1-yl)propanamide], for which the “SI (T.b.r.)” value in [5] was 418. The IC50 in data set [5] is 0.041 µM; in [6], 0.005 µM; in [7] it was 1.15 µM; in data set [8], 17.3 µM; in data set [9] (setting [13]), ~0.65 µM; in data set [9] (read-out: IC50 value T.b. brucei Wild type, bloodstream form), 0.64 ± 0.02 µM. Further, the IC50 in data set [10] (setting [14]) worked out at 0.34 µM; in data set [10] (setting [15]), 0.62 ± 0.03 µM. The “fold more potent against T. b. rhodesiense than the corresponding acetamide” value in data set [5] came out at 32 fold. In addition, the “SI (T. c.)” value in data set [6] was 3343. For the same compound, the Bnz/comp in [6] is on record as 441. In addition, the “TbNTR specific enzyme activity, fold greater than benznidazole” value in data set [11] is recorded as ≤ 4 fold. In addition, the “toxicity symptoms in treated mice” value in data set [12] (13 mg/kg/day i.p. x 10 days) is given as “did not look very healthy, although no deaths occurred”. The “parasite load after 10 days of treatment” value in data set [12] (13 mg/kg/day i.p. x 10 days, acute murine model, p < 0.0001) is “undetectable levels”. The “parasitic level after 5-day treatment” value in data set [12] (13 mg/kg/day i.p., compared to untreated control) is recorded as “Statistically significant reduction in parasitic level”.

Turning to `O=C(CCn1cnc([N+](=O)[O-])n1)Nc1cc(-c2ccc(Cl)cc2)no1` [Compound 14, N-(3-(4-chlorophenyl)isoxazol-5-yl)-3-(3-nitro-1H-1,2,4-triazol-1-yl)propanamide], in [5], the “anti-HAT activity class (TDR criteria)” value was “moderately active (IC50 between 0.5 and 6.0 μM)”. The IC50 in [5] is 0.651 µM; in data set [6], 0.251 µM; in data set [7], 2.95 µM; in data set [8], 179 µM; in [9] (setting [13]) it was 0.27 ± 0.05 µM; in [10] (setting [14]), 0.29 ± 0.02 µM. Moreover, the IC50 in data set [10] (setting [15]) turned out to be 0.91 ± 0.03 µM. The Bnz/comp in [6] was 9. Further, in [7], the “antileishmanial activity class” value was “moderately active (‘moderate activity’ (IC50 between 1.0 and 6.0 μM))”. For the same compound, the “substrate of TbNTR / rate of metabolism” value in data set [11] is listed as “equivalent rates”.

For orientation: melting point means the temperature, or range, at which the solid turns liquid. Consider `O=C(CCn1cnc([N+](=O)[O-])n1)Nc1cccc(OCc2ccccc2)c1` [Compound 11, N-(3-(benzyloxy)phenyl)-3-(3-nitro-1H-1,2,4-triazol-1-yl)propanamide], for which the melting point fell in the range of 119 to 120 °C. For the same compound, in [5], the “SI (T.b.r.)” value came out at 182, the IC50 worked out at 0.221 µM and the “fold more potent against T. b. rhodesiense than the corresponding acetamide” value was 22 fold. In [6], the “SI (T. c.)” value amounted to 868, the IC50 turned out to be 0.046 µM and the Bnz/comp is given as 48. For the same compound, in [7], the “SI (L.d.)” value was determined as 35, the “antileishmanial activity class” value was “moderate activity” and the IC50 was 1.14 µM. The “fold more potent against L. donovani than the acetamide analog” value in data set [7] (propanamide vs acetamide analog) is on record as “ca. 3 fold”. For the same compound, the IC50 in data set [8] came out at 40.2 µM. Further, the IC50 in data set [9] (setting [13]) came to 4.25 ± 0.16 µM. In [10] (setting [14]), the IC50 was 0.36 ± 0.02 µM. Moreover, the 50% inhibitory concentration (IC50) in data set [10] (setting [15]) came out at 3.7 ± 0.58 µM. Further, the “TbNTR specific enzyme activity, fold greater than benznidazole” value in data set [11] is ≤ 4 fold.

In the case of `O=C(Cn1cnc([N+](=O)[O-])n1)Nc1cc(-c2ccc(F)cc2)on1` [Compound 13, N-(5-(4-fluorophenyl)isoxazol-3-yl)-2-(3-nitro-1H-1,2,4-triazol-1-yl)acetamide], the melting point was > 220 °C. In [5], the “SI (T.b.r.)” value worked out at 25.1, the “anti-HAT activity class (TDR criteria)” value was “inactive” and the half-inhibitory concentration (IC50) is 8 µM. Further, in data set [6], the “SI (T. c.)” value was found to be 590, the IC50 was determined as 0.34 µM and the Bnz/comp is given as 6.5. Besides, in data set [7], the “SI (L.d.)” value came to 20.5, the “antileishmanial activity class” value was “inactive” and the IC50 stood at 9.79 µM. Further, the IC50 in data set [8] was 201 µM. In addition, the IC50 in data set [9] (setting [13]) was 26.6 ± 6.02 µM. In addition, the “TbNTR specific enzyme activity, fold greater than benznidazole” value in data set [11] is recorded as ≤ 4 fold.

Turning to `O=C(Cn1cnc([N+](=O)[O-])n1)Nc1ccc(Oc2ccc(F)cc2)cc1` [Compound 7a], the IC50 in data set [1] is 2 µM. In data set [2], the “SI (T. c.)” value is listed as 1954, the Bnz/comp is on record as 56 and the IC50 is 0.036 µM. In [3], the “SI (L.d.)” value is given as 384 and the IC50 is 0.183 µM. Further, the IC50 in [4] is 70.4 µM.
